Earlier results, collected in patent publication US8454566B2, “Methods and compositions for the inhibition of biofilms on medical devices” (Medtronic MiniMed, Inc., priority 2003, dated 2013).

Target: avidin (Gallus gallus, UniProt P02701)
Details: avidin tetramer binds 4 biotin molecules in solution, noncovalent interaction

Chain of avidin (P02701 25-152): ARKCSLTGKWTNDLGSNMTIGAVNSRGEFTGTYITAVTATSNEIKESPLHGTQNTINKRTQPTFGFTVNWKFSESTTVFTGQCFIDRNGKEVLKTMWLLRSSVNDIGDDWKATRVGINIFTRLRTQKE

## O=C(O)CCCC[C@@H]1SC[C@@H]2NC(=O)N[C@@H]21 [biotin]
  binding constant: about 10^15 M^−1
